The text below walks through data of patent US12668599B2, “Heterobifunctional compounds and methods of treating disease” (Halda Therapeutics OpCo, Inc., priority 2023, dated 2026).

By GI50 is commonly meant the concentration at which growth is held to half of that of the control. The low end stands for more potent growth inhibition, the high end for less potent growth inhibition.

Molecules are shown by their SMILES. Like-named read-outs stand apart in the source and are kept apart here. Bounds are passed on as bounds.

Data set [1] can be described thus: Stability analysis of Crystal Form A and Crystal Form B in solvent suspensions (XRPD). It is filed as physicochemical. Conditions: suspensions in EtOH, Acetone, Acetonitrile, THF/Heptane at 25° C. and 50° C. for 1 week. As for the experimental part: The obtained suspensions were stirred at 25° C. and 50° C. for 1 week, respectively. Solid parts (wet cakes) were isolated by centrifugation filtration at […] temperature and investigated by XRPD.

The test system of data set [2] is T47D cells. As to the kind of experiment: Cellular growth inhibition assay for T47D cells (CellTiter-Glo 2.0, 72 hours). The class given is cell-based, human. How it is done:
Exemplary compounds were tested for ability to inhibit the proliferation of T47D cells. T47D cells are a commercially available human breast cancer cell line.
T47D cells were purchased from American Type Cell Culture (ATCC Cat #HTB-133) and then seeded on poly-D-lysine coated, black clear-bottom 384-well plates at 3000/well in 25 μL Dulbecco's Modified Eagle Medium (DMEM) supplemented with 10% w/w Fetal bovine serum (FBS), 0.2 units/mL recombinant human insulin (Gibco Cat #12585014), and 1% w/w Pen-Strep. Pen-Strep is a commercially available mixture of penicillin G and streptomycin, which is used in mammalian cell culture media to prevent bacterial contamination. Dulbecco's Modified Eagle Medium (DMEM) supplemented with 10% w/w fetal bovine serum (FBS), 0.2 units/mL recombinant human insulin, and 1% w/w Pen-Strep is herein referred to as Treatment Medium. Following seeding of cells in the plates, the plates were spun at 300×g for 30 seconds, then equilibrated to room temperature for 30 minutes, and then deposited in a humidified tissue culture incubator maintained at 37° C. with 5% CO2.
At 24 hours after seeding of the cells, dilutions of test compound were prepared in DMSO and dissolved in Treatment Medium, to achieve a final DMSO concentration of 0.5% w/w, thereby providing the Test Compound Solution. A 25 μL aliquot of the Test Compound Solution was added to cells in the well plates. An equal volume of a solution containing DMSO and Treatment Medium was used as a negative control. Following treatment of cells with Test Compound Solution or said equal volume of a solution containing DMSO and Treatment Medium, the plates were spun at 300×g for 30 seconds, and then left in an incubator for 72 hours.
At the end of the treatment duration, cell viability was quantified with CellTiter-Glo 2.0 reagent (Promega Cat #G9243). For this purpose, plates were equilibrated to room temperature for 30 minutes, and then 25 μL of CellTiter-Glo 2.0 reagent was added to cells in the plate wells. Plates were then agitated on a shaker for two minutes at 500 rpm and subsequently incubated at room temperature for 10 minutes. Following incubation, the plates were spun at 3000×g for 30 seconds, then sealed with an optical adhesive cover, and luminescence readings were measured with an En Vision Plate Reader (Perkin Elmer).
Data was normalized using zero luminescence for baseline. A four-parameter non-linear regression curve fit was applied to dose-response data in GraphPad Prism data analysis software to determine the half-maximal growth inhibitory concentration (GI50) for each test compound.
On the technique in general: ATP-based viability assays read luminescence as a measure of living cells.

The test system of data set [3] is VCaP cells. As to the kind of experiment: Cellular growth inhibition assay for VCaP cells (CellTiter-Glo 2.0, 72 hours). The settings on record: for GI50: CellTiter-Glo 2.0; for Ratio of GI50's: GI50 of the top compound in the pair divided by GI50 of the lower compound. The class given is cell-based, human.
Data set [4] concerns T-Rex 293 cell line SC3 cells having increased expression of androgen receptor protein due to exposure to doxycycline. As to the kind of experiment: Cellular growth inhibition, T-Rex 293 SC3 cells with doxycycline-induced androgen receptor (CellTiter-Glo 2.0, 72 hours). It is filed as cell-based. The settings on record: for GI50: T-Rex 293 SC3 cells with 10 ng/ml doxycycline (increased androgen receptor expression), 72 hours, CellTiter-Glo 2.0; for Ratio of GI50's: GI50 of the top compound in the pair divided by GI50 of the lower compound, T-Rex 293 SC3 cells with doxycycline-induced androgen receptor.

Data set [5] relates to T-Rex 293 cell line SC3 cells lacking increased expression of androgen receptor protein. As to the kind of experiment: Cellular growth inhibition, T-Rex 293 SC3 cells without doxycycline (CellTiter-Glo 2.0, 72 hours). The settings on record: T-Rex 293 SC3 cells not exposed to doxycycline (no increased androgen receptor expression). It is filed as cell-based.

As to `COc1cc(O[C@H]2C(C)(C)[C@H](NC(=O)c3cnc(N4CCC5(CC4)CC(Oc4ccc(C6=N[C@@H](Cc7ncco7)c7nnc(C)n7-c7sc(C)c(C)c76)cc4)C5)nc3)C2(C)C)ccc1C#N` [Compound II-5 in Crystal Form B, N-[(1r,3r)-3-(4-cyano-3-methoxy-phenoxy)-2,2,4,4-tetramethyl-cyclobutyl]-2-[2-[4-[(9S)-4,5,13-trimethyl-9-(oxazol-2-ylmethyl)-3-thia-1,8,11,12-tetrazatricyclo[8.3.0.0^2,6]trideca-2 (6),4,7,10,12-pentaen-7-yl]phenoxy]-7-azaspiro[3.5]nonan-7-yl]pyrimidine-5-carboxamide Crystal Form B], in data set [1], the “relative stability of crystal forms” value is listed as “converted to Compound II-5 in Crystal Form A”.

For `Cc1sc2c(c1C)C(c1ccc(OC3CC4(CCN(c5ncc(C(=O)N[C@H]6C(C)(C)[C@H](Oc7ccc(C#N)c(OC(F)(F)F)c7)C6(C)C)cn5)CC4)C3)cc1)=N[C@@H](Cc1ncco1)c1nnc(C)n1-2` [II-2], the GI50 in data set [2] (Homo sapiens, T47D, 72 h) is less than 500 nM.

For `COc1cc(O[C@H]2CC[C@H](NC(=O)c3ccc(N4CCC5(CN(c6ccc(C7=N[C@@H](C)c8nnc(C)n8-c8sc(C)c(C)c87)cc6)CC5(F)F)C4)nn3)CC2)ccc1C#N` (stereo partly drawn) [Compound I-103], the GI50 in data set [3] (Homo sapiens, VCaP, 72 h) was 500 to 1500 nM; in data set [2], 500 to 1500 nM; in data set [4], less than 500 nM; in data set [5] (72 h), less than 500 nM.

With `Cc1sc2c(c1C)C(c1ccc(CC3CC4(CCN(c5ncc(C(=O)N[C@H]6C(C)(C)[C@H](Oc7ccc(C#N)c(OC(F)(F)F)c7)C6(C)C)cn5)CC4)C3)cc1)=N[C@@H](Cc1ncco1)c1nnc(C)n1-2` [II-1, N-[3-[4-cyano-3-(trifluoromethoxy)phenoxy]-2,2,4,4-tetramethyl-cyclobutyl]-2-[2-[[4-[(9S)-4,5,13-trimethyl-9-(oxazol-2-ylmethyl)-3-thia-1,8,11,12-tetrazatricyclo[8.3.0.0^2,6]trideca-2 (6),4,7,10,12-pentaen-7-yl]phenyl]methyl]-7-azaspiro[3.5]nonan-7-yl]pyrimidine-5-carboxamide], the GI50 in data set [3] (Homo sapiens, VCaP, 72 h) was greater than 3000 nM; in data set [2] (Homo sapiens, T47D, 72 h), less than 500 nM; in data set [4] it was less than 500 nM; in data set [5] (72 h), less than 500 nM.

In data set [2] (Homo sapiens, T47D, 72 h), `COc1cc(O[C@H]2C(C)(C)[C@H](NC(=O)c3cnc(N4CCC(CC5CN(c6ccc(C7=N[C@@H](C)c8nnc(C)n8-c8sc(C)c(C)c87)cc6)C5)CC4)nc3)C2(C)C)ccc1C#N` [II-3] registered a GI50 of less than 500 nM.

With `COc1cc(O[C@H]2C(C)(C)[C@H](NC(=O)c3cnc(N4CCC5(CCC(c6ccc(C7=N[C@@H](Cc8ncco8)c8nnc(C)n8-c8sc(C)c(C)c87)cc6)CC5)C4)nc3)C2(C)C)ccc1C#N` [II-11, N-[(1r,3r)-3-(4-cyano-3-methoxy-phenoxy)-2,2,4,4-tetramethyl-cyclobutyl]-2-[8-[4-[(9S)-4,5,13-trimethyl-9-(oxazol-2-ylmethyl)-3-thia-1,8,11,12-tetrazatricyclo[8.3.0.0^2,6]trideca-2 (6),4,7,10,12-pentaen-7-yl]phenyl]-2-azaspiro[4.5]decan-2-yl]pyrimidine-5-carboxamide], the GI50 in data set [3] (Homo sapiens, VCaP, 72 h) is less than 500 nM; in data set [2] (Homo sapiens, T47D, 72 h), less than 500 nM; in data set [4], less than 500 nM; in data set [5] (72 h), less than 500 nM.

As to `COc1cc(O[C@H]2C(C)(C)[C@H](NC(=O)c3cnc(N4CCC5(CCC(c6ccc(C7=N[C@@H](Cc8ncco8)c8nnc(C)n8-c8sc(C)c(C)c87)cc6)CC5)C4)nc3)C2(C)C)ccc1C#N` [II-12], the GI50 in data set [3] (72 hours), in data set [2], in data set [4] and in data set [5] was less than 500 nM each time. Further, the “Ratio of GI50's” value in data set [3] and in data set [4] was 1 throughout.

With `COc1cc(O[C@H]2CC[C@H](NC(=O)c3ccc(N4CCC5(CN(c6ccc(C7=N[C@@H](C)c8nnc(C)n8-c8sc(C)c(C)c87)cc6)CC5(F)F)C4)nn3)CC2)ccc1C#N` (stereo partly drawn) [Compound I-104], the GI50 in data set [3] (72 hours) is 500 to 1500 nM; in data set [2], 1500 to 3000 nM; in data set [4], less than 500 nM; in data set [5] it was 500 to 1500 nM.

As to `COc1cc(O[C@H]2C(C)(C)[C@H](NC(=O)c3cnc(N4CCC5(CC4)CC(Cc4ccc(C6=N[C@@H](Cc7ncco7)c7nnc(C)n7-c7sc(C)c(C)c76)cc4)C5)nc3)C2(C)C)ccc1C#N` [II-10, N-[3-(4-cyano-3-methoxy-phenoxy)-2,2,4,4-tetramethyl-cyclobutyl]-2-[2-[[4-[(9S)-4,5,13-trimethyl-9-(oxazol-2-ylmethyl)-3-thia-1,8,11,12-tetrazatricyclo[8.3.0.0^2,6]trideca-2 (6),4,7,10,12-pentaen-7-yl]phenyl]methyl]-7-azaspiro[3.5]nonan-7-yl]pyrimidine-5-carboxamide], the “Ratio of GI50's” value in data set [3] and in data set [4] was 1 throughout. Moreover, the GI50 in data set [3] (Homo sapiens, VCaP, 72 h) was less than 500 nM; in data set [2] (Homo sapiens, T47D, 72 h), less than 500 nM; in data set [4], less than 500 nM; in data set [5] (72 h), 500 to 1500 nM.

In the case of `COc1cc(O[C@H]2C(C)(C)[C@H](NC(=O)c3cnc(N4CCC5(CCC(c6ccc(C7=N[C@@H](C)c8nnc(C)n8-c8sc(C)c(C)c87)cc6)CC5)C4)nc3)C2(C)C)ccc1C#N` [II-8], in data set [2], the GI50 was in the range of 500 to 1500 nM.

As to `COc1cc(O[C@H]2C(C)(C)[C@H](NC(=O)c3cnc(N4CCC5(CCN(c6ccc(C7=N[C@@H](C)c8nnc(C)n8-c8sc(C)c(C)c87)cc6)CC5)C4)nc3)C2(C)C)ccc1C#N` [II-4, N-[3-(4-cyano-3-methoxy-phenoxy)-2,2,4,4-tetramethyl-cyclobutyl]-2-[8-[4-[(9S)-4,5,9,13-tetramethyl-3-thia-1,8,11,12-tetrazatricyclo[8.3.0.0^2,6]trideca-2 (6),4,7,10,12-pentaen-7-yl]phenyl]-2,8-diazaspiro[4.5]decan-2-yl]pyrimidine-5-carboxamide], the GI50 in data set [3] (Homo sapiens, VCaP, 72 h) was less than 500 nM; in data set [2] (Homo sapiens, T47D, 72 h), less than 500 nM; in data set [4], less than 500 nM; in data set [5] (72 h), less than 500 nM.

For `COc1cc(O[C@H]2C(C)(C)[C@H](NC(=O)c3cnc(N4CCC5(CCC(c6ccc(C7=N[C@@H](C)c8nnc(C)n8-c8sc(C)c(C)c87)cc6)CC5)C4)nc3)C2(C)C)ccc1C#N` [II-7], the GI50 was 1500 to 3000 nM in data set [3] (Homo sapiens, VCaP, 72 h); less than 500 nM in data set [2] (Homo sapiens, T47D, 72 h); less than 500 nM in data set [4]; less than 500 nM in data set [5] (72 h).

For the compound `COc1cc(O[C@H]2C(C)(C)[C@H](NC(=O)c3ccc(N4CCC5(CC4)CC(Cc4ccc(C6=N[C@@H](C)c7nnc(C)n7-c7sc(C)c(C)c76)cc4)C5)nc3)C2(C)C)ccc1C#N` [II-6], the GI50 in data set [2] (Homo sapiens, T47D, 72 h) is less than 500 nM.

Turning to `COc1cc(O[C@H]2CC[C@H](NC(=O)c3ncc(N4CCC5(CCC(c6ccc(C7=N[C@@H](C)c8nnc(C)n8-c8sc(C)c(C)c87)cc6)CC5)C4)cn3)CC2)ccc1C#N` (stereo partly drawn) [Compound I-102], the GI50 is less than 500 nM in data set [3] (Homo sapiens, VCaP, 72 h); less than 500 nM in data set [2] (Homo sapiens, T47D, 72 h); less than 500 nM in data set [4]; less than 500 nM in data set [5] (72 h).
